This is an account of results in patent publication EP0460488B1, “Sulfur-containing heterocyclic compounds” (Takeda Chemical Industries, Ltd., priority 1990, dated 1991).

The test system of one assay is bone resorption. Briefly: Study on bone resorption inhibition: 45Ca release from cultured rat fetal bones (method of Raisz). Type of assay: cell-based, Sprague-Dawley rat. As to conditions: description for DK (own example numbering); rat fetal bone culture, 2 days with test compound; mean of 5 bones; test concentration not given. As to the method: Bone resorption inhibitory activity was determined according to the method of Raisz [Journal of Clinical Investigation (J. Clin. Invest.) 44, 103-116 (1965)].
(§1) That is, a Sprague-Dawley rat at day 19 of pregnancy was subcutaneously dosed with 50 µCi of 45Ca (a radioisotope of calcium, in CaCl2). On the next day, the animal was laparotomized and the fetuses were removed aseptically. The right and left […] (radii and ulnae) of each rat fetus were dissected from the body under the dissection microscope. The connective tissue and cartilages were removed as far as possible to prepare bone culture specimens. Each piece of bone was incubated in 0.6 ml of BGJb medium (Fitton-Jackson modification [the tradename owned by GIBCO Laboratories, U.S.A.]) containing 2 mg/ml of bovine serum albumin at 37°C for 24 hours. Then, incubation was carried out for additional two days in the above-mentioned medium. The radioactivities of 45Ca in the culture medium and bone were determined and the ratio (%) of 45Ca released from the bone to the medium was calculated according to the following formula. A =(B)/(B + C)x 100 [formula] A = ratio (%) of ^45Ca released from the bone to the medium B = ^45Ca count in the medium C = ^45Ca count in the bone
The bones from the fetuses of the same litter were similarly incubated without addition of the test compound for two days and served as controls.
The values for 5 bones per group were expressed in mean. The ratio (%) of this value for the treatment group to the control value was determined.
as §1, with “of ^45Ca” for “of 45Ca”
In the case of `COc1cc2c(cc1OC)C(=O)CSC(C(=O)Nc1nc(-c3ccccc3)cs1)C2` (centres unmarked) [compound 25], the “45Ca release (% to control)” value was 69 % to control.

Turning to `O=C1CSC(C(=O)Nc2ccc(Cl)cc2)Cc2ccc(Cl)cc21` (centres unmarked) [compound 26], the “45Ca release (% to control)” value is given as 68 % to control.

As for `Cc1ccc2c(c1)C(=O)CSC(C(=O)Nc1ccc(Cl)cc1)C2` (centres unmarked) [compound 28], the “45Ca release (% to control)” value is 61 % to control.

Turning to “methyl trans-4,7-dimethyl-5-oxo-1,2,4,5-tetrahydro-3-benzothiepine-2-carboxylate [Reference Example 32]”, the “45Ca release (% to control)” value is recorded as 63 % to control.

The assay is the same for the next values; noted with them: rat fetal bone culture, 2 days with test compound; mean of 5 bones; ratio of treatment group to control; test concentration not given.
Consider `COc1cc2c(cc1OC)C(=O)CSC(C(=O)Nc1nc(-c3ccccc3)cs1)C2` (centres unmarked) [Example 47], for which the “^45Ca release (% to control)” value is 69 % to control.

In the case of `O=C1CSC(C(=O)Nc2ccc(Cl)cc2)Cc2ccc(Cl)cc21` (centres unmarked) [Example 48], the “^45Ca release (% to control)” value is given as 68 % to control.

On to `Cc1ccc2c(c1)C(=O)CSC(C(=O)Nc1ccc(Cl)cc1)C2` (centres unmarked) [Example 50], for which the “^45Ca release (% to control)” value is on record as 61 % to control.

As to `Cc1ccc2c(c1)C(=O)CSC(C(=O)N(C)Cc1ccccc1)C2` (centres unmarked) [Example 54], the “^45Ca release (% to control)” value is given as 63 % to control.
